± gives the standard deviation of the averaged measurements.
Tests used:
Assay in all cases: level (log10 ratio to DMSO vehicle control); higher = higher biomarker level / cell amount than vehicle control
Conditions in all cases: in DMSO
[1] = compound: C=C(C)C(=O)OCC(F)(F)C(F)(F)C(F)(F)C(F)(F)C(F)(F)C(F)(F)C(F)(F)F
Method: (§1)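 BioMAP Diversity Plus panel of 12 human primary cell co-culture systems (3C, 4H, LPS, SAg, BT, BF4T, BE3C, CASM3C, HDF3CGF, KF3CT, MyoF, Mphg). Compounds were added 1 h before stimulation and left for 24 h (MyoF 48 h; BT 72 h for soluble read-outs or 6 d for IgG). Biomarkers were read by ELISA, cytotoxicity by SRB, PBMC viability and proliferation by Alamar Blue. Each well value was divided by the mean of 8 DMSO control wells on the same plate and log10 transformed; duplicate blinded samples were tested at 4 concentrations.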

[2] = compound: CC(C)(C)C(=O)CC(=O)C(F)(F)C(F)(F)C(F)(F)F [(Heptafluorobutanoyl)pivaloylmethane]
Method: as §1

[3] = compound: O=C(O)C(F)(F)C(F)(F)C(F)(F)C(F)(F)C(F)(F)C(F)(F)C(F)(F)C(F)(F)C(F)(F)C(F)(F)C(F)(F)C(F)(F)C(F)(F)F [Perfluorotetradecanoic acid]
Method: as §1

[4] = compound: O=C(O)C(F)(F)C(F)(F)C(F)(F)C(F)(F)C(F)(F)C(F)(F)C(F)(F)C(F)(F)Cl [9-Chloro-perfluorononanoic acid]
Method: as §1

[5] = compound: O=C(O)C(F)(F)OC(F)(F)C(F)(F)OC(F)(F)C(F)(F)C(F)(F)C(F)(F)F [Perfluoro-3,6-dioxadecanoic acid]
Method: as §1

[6] = compound: O=C(O)CCC(F)(F)C(F)(F)C(F)(F)C(F)(F)C(F)(F)F [2H,2H,3H,3H-Perfluorooctanoic acid]
Method: as §1

[7] = compound: O=S(=O)(O)C(F)(F)C(F)(F)C(F)(F)C(F)(F)C(F)(F)C(F)(F)C(F)(F)C(F)(F)F [Perfluorooctanesulfonic acid]
Method: as §1

| Test System | level (log10) ([1]; 6700 nM) | level (log10) ([1]; 20000 nM) | level (log10) ([2]; 6700 nM) | level (log10) ([2]; 20000 nM) | level (log10) ([2]; 60000 nM) | level (log10) ([3]; 6700 nM) | level (log10) ([3]; 20000 nM) | level (log10) ([4]; 6700 nM) | level (log10) ([4]; 20000 nM) | level (log10) ([5]; 6700 nM) | level (log10) ([5]; 20000 nM) | level (log10) ([5]; 60000 nM) | level (log10) ([6]; 6700 nM) | level (log10) ([6]; 20000 nM) | level (log10) ([6]; 60000 nM) | level (log10) ([7]; 6700 nM) | level (log10) ([7]; 20000 nM) | level (log10) ([7]; 60000 nM) |
| --- | --- | --- | --- | --- | --- | --- | --- | --- | --- | --- | --- | --- | --- | --- | --- | --- | --- | --- |
| 4H:CD87/uPAR | -0.019 ± 0.025 | -0.0015 ± 0.028 | -0.005 ± 0.057 | -0.0135 ± 0.036 | 0.016 ± 0.12 | -0.0495 ± 0.097 | -0.0345 ± 0.14 | 0.0055 ± 0.033 | 0.002 ± 0.0099 | -0.004 ± 0.0099 | -0.004 ± 0.0085 | -0.0175 ± 0.037 | -0.008 ± 0.04 | -0.0065 ± 0.03 | -0.062 ± 0.037 | 0.07 ± 0.033 | 0.065 ± 0.014 | 0.0945 ± 0.049 |
| BF4T:MMP-1 | -0.0075 ± 0.015 | 0.016 ± 0.011 | 0.0005 ± 0.0035 | -0.0145 ± 0.0092 | -0.011 ± 0.02 | 0.0015 ± 0.00071 | 0.013 ± 0.0028 | -0.0115 ± 0.0078 | 0.0245 ± 0.0064 | -0.046 ± 0.013 | 0.01 ± 0.037 | 0.0625 ± 0.015 | -0.003 ± 0.0042 | 0.001 ± 0.023 | 0.005 ± 0.021 | 0.02 ± 0.0014 | 0.029 ± 0.013 | 0.039 ± 0.047 |
| BT:sIL-17A | 0.0535 ± 0.073 | -0.0375 ± 0.22 | -0.0075 ± 0.013 | -0.0315 ± 0.053 | -0.194 ± 0.18 | -0.111 ± 0.021 | -0.059 ± 0.16 | 0.015 ± 0.054 | 0.008 ± 0.047 | 0.034 ± 0.12 | 0.045 ± 0.22 | -0.147 ± 0.065 | 0.0035 ± 0.021 | -0.199 ± 0.028 | -0.231 ± 0.099 | 0.13 ± 0.18 | 0.106 ± 0.098 | 0.0295 ± 0.025 |
| BF4T:Keratin 8/18 | 0.014 ± 0.0028 | -0.003 ± 0.0014 | -0.007 ± 0.061 | -0.024 ± 0.041 | 0.0145 ± 0.0035 | -0.0135 ± 0.015 | 0.0195 ± 0.032 | -0.004 ± 0.0057 | -0.0105 ± 0.0035 | -0.0125 ± 0.0064 | -0.0225 ± 0.011 | 0.004 ± 0.033 | -0.0015 ± 0.015 | -0.0055 ± 0.0021 | 0.005 ± 0.024 | -0.009 ± 0.0014 | -0.0015 ± 0.0021 | 0.0135 ± 0.021 |
| 4H:CCL26/Eotaxin-3 | 0.0385 ± 0.043 | 0.0315 ± 0.047 | -0.002 ± 0.0014 | 0.004 ± 0.0057 | 0.0145 ± 0.016 | -0.0595 ± 0.019 | -0.0575 ± 0.047 | -0.04 ± 0.011 | 0.016 ± 0.037 | 0.0145 ± 0.005 | -0.0035 ± 0.039 | 0.032 ± 0.048 | 0.032 ± 0.017 | 0.0095 ± 0.016 | 0.0125 ± 0.015 | -0.014 ± 0.0014 | -0.032 ± 0.0028 | -0.0595 ± 0.0064 |
| LPS:CD142/Tissue Factor | -0.0155 ± 0.032 | -0.0245 ± 0.087 | 0.0055 ± 0.012 | 0.0385 ± 0.018 | 0.034 ± 0.0057 | 0.0225 ± 0.04 | 0.0025 ± 0.098 | 0.0165 ± 0.059 | 0.0375 ± 0.016 | 0.031 ± 0.054 | -0.029 ± 0.03 | -0.0375 ± 0.083 | 0.0725 ± 0.018 | 0.063 ± 0.0028 | 0.0265 ± 0.037 | -0.0135 ± 0.00071 | -0.0265 ± 0.019 | -0.0105 ± 0.0092 |

Reference: the supplement of paper PMC10331698
